Experimental data published in paper PMC8698070, “The Zoonotic Helminth Parasite Fasciola hepatica: Virulence-Associated Cathepsin B and Cathepsin L Cysteine Peptidases Secreted by Infective Newly Excysted Juveniles (NEJ)” (Animals : an Open Access Journal from MDPI, 2021).
Several values for one entry are separate records, joined by “and”; a condition that tells them apart may be missing. Equal values may be shown once. Entries after “also recorded” stand apart in the source; their conditions may differ. Read-outs that look alike come from different tables or passages of the source. Where a SMILES comes first, the peptide text is derived from it. The star is where a group is joined. Cbz = O=C(OCc1ccccc1)*

How the values were obtained:
[1] = biological target: FhCB1 (Fasciola hepatica, UniProt Q8I7B2); assay: Inhibition of recombinant FhCB1, fluorogenic substrate assay (Z-Phe-Arg-AMC); type: biochemical; settings: for Ki: read-out: inhibition constant Ki; for inhibition of enzymatic activity (inhibitor screen, Figure 5), in words: FhCB1, inhibitor 1000-15 nM
FhCB1, sequence (Q8I7B2 entry or part of it): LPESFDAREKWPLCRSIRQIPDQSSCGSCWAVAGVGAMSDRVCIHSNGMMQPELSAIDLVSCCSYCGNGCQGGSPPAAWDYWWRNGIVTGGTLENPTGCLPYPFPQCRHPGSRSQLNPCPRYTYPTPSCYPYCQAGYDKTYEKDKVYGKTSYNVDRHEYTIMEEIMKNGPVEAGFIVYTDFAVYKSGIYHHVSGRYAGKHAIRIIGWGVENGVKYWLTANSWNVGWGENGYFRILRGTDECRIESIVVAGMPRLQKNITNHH
Description: (§1) Recombinant peptidases were assayed for enzymatic activity using a fluorogenic substrate assay. The reactions were carried out in 0.1 M C-P buffer (pH 7.0) with 1 mM DTT in a final volume of 200 μL, in a black 96-well plate. Each well contained activated enzyme (140 nM) and 20 μM fluorogenic substrate, which was added to start the reaction. All assays were run in triplicate at 37 °C for 1 h. Enzyme activity was monitored by rate of hydrolysis and subsequent release of the AMC group on the synthetic peptide substrates at an excitation wavelength of 370 nm and an emission wavelength of 460 nm, as relative fluorescence units (RFU), in a PolarStar Omega Spectrophotometer (BMG Labtech, Aylesbury, UK). All data were plotted and analysed using MARS Data Analysis Software (BMG Labtech, UK) and GraphPad Prism version 5.
(§2) Commercially available inhibitors of cathepsin B (Ca074 and Ca074-OMe), cathepsin L (L, L1, LII, LIII and LIV), cathepsin K (KI, KII and KIII) and cathepsin S were purchased from Merck Millipore (Cork, Ireland; Supplementary Figure S2). The broad-spectrum papain peptidase inhibitor Z-Phe-Ala-FMK was purchased from Enzo Life Sciences (Exeter, UK). These were used to determine and compare the inhibition constant (Ki) against the recombinant FhCBs and FhCL3. All the assays were carried out in 0.1 M C-P buffer with 1 mM DTT and 0.01% Brij® L23, at the pH corresponding to the optimum for each enzyme in a total 200 µL reaction volume. The peptidases (140 nM) were pre-incubated with the inhibitor (1000-15 nM) at room temperature, for 30 min, before starting the reaction by the addition of the substrate that was optimal for each enzyme (FhCB1, Z-Phe-Arg-AMC; FhCB2 and FhCB3, Z-Val-Ile-Arg-AMC; FhCL3, Z-Gly-Pro-Arg-AMC). Substrate concentrations were equal to KM (shown in Table 1) and the apparent inhibition constant (Ki^app) values were calculated with GraphPad Prism 5, using the Morrison equation for tight binding inhibition (Equation (3)). For competitive inhibitors, such as those used in this study, Ki^app was fitted to a second equation (Equation (4)) from which Ki can be determined. (3) vi/vo=1−([E])+[I]+Kiapp)−([E]+[I]+Kiapp)^2−4[E][I] /2[E] (4) Kiapp=Ki(1+[S]/KM)

[2] = biological target: FhCB3 (Fasciola hepatica, UniProt A7UNB2); assay: Inhibition of recombinant FhCB3, fluorogenic substrate assay (Z-Val-Ile-Arg-AMC); type: biochemical; settings: for inhibition of enzymatic activity (inhibitor screen, Figure 5), in words: FhCB3, inhibitor 1000-15 nM
FhCB3, sequence (A7UNB2 entry or part of it): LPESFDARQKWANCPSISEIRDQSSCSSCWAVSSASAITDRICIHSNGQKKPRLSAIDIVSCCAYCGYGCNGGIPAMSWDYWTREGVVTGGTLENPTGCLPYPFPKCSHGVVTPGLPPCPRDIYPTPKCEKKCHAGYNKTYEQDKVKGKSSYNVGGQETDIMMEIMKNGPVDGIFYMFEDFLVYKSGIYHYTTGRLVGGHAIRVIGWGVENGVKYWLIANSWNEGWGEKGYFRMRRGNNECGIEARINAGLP
Description: as §1, §2

[3] = biological target: FhCL3 (Fasciola hepatica, UniProt A0A879R2T5); assay: Inhibition of recombinant FhCL3, fluorogenic substrate assay (Z-Gly-Pro-Arg-AMC); type: biochemical; settings: for inhibition of enzymatic activity (inhibitor screen, Figure 5), in words: FhCL3, inhibitor 1000-15 nM
FhCL3, sequence (A0A879R2T5 entry or part of it): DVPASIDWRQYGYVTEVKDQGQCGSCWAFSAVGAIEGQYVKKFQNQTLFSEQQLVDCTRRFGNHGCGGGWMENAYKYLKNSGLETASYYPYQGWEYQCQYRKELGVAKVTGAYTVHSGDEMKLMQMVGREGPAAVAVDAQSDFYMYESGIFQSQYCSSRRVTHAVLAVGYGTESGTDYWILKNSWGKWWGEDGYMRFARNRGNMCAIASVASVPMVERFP
Description: as §1, §2

[4] = test system: F. hepatica NEJ; assay: Viability of NEJ in culture; type: cell-based, Fasciola hepatica; settings: 100 μM inhibitor, 24 h culture, compared to the DMSO group
Description: NEJ were washed three times in a culturing medium (RPMI-1640 medium supplemented with 30 mM HEPES, 0.1% glucose, 10% foetal bovine serum and 50 μg/mL of gentamicin) and their viability assessed by culturing the parasites in 1 mL of culture medium containing 100 μM of the inhibitor at 5% CO2 at 37 °C for 24 h. After incubation, the number of moribund/dead parasites were counted using a light microscope (25× magnification). The criteria used to assess the NEJ viability were loss of motility and peristaltic movement and any obvious damage to the tegument or internal structures, as previously standardized by. The experiments were performed in triplicate. The average of the replicate experimental data was subjected to a two-way ANOVA comparing the values obtained with each inhibitor against the mean of the DMSO control group, with minimum 95% confidence intervals. All the statistical analyses were performed using GraphPad Prism 5.

[5] = biological target: human cathepsins S; set-up: method as in PMID 10964677; settings: human cathepsin S; cited from earlier work
[6] = biological target: human cathepsins B; set-up: method as in PMID 10964677; settings: human cathepsin B; cited from earlier work
[7] = test system: F. hepatica metacercariae; assay: Excystment of F. hepatica metacercariae in vitro; type: cell-based, Fasciola hepatica; settings: 100 μM inhibitor, 3 h, 37 °C, 50 metacercariae per well; vs DMSO control
Description: F. hepatica metacercariae (Italian isolate; Ridgeway Research, Saint Briavels, UK) were prepared for excystment as previously described by Robinson et al.. To verify the effect of the cathepsin peptidase inhibitors on the ability of the metacercariae to excyst, 50 metacercariae per well were placed into a 24-well plate and 1 mL of excystment medium (0.6% sodium bicarbonate, 0.45% sodium chloride, 0.4% sodium tauroglycocholate, 0.025 N HCl and 0.4% L-cysteine) supplemented with 100 μM of the inhibitor was added to the well. As controls, we used PBS and dimethylsulfoxide (DMSO, 1:100; Sigma-Aldrich) alone. The plate was then incubated at 37 °C with 5% CO2, for 3 h to allow metacercarial excystment. Using a light microscope (25× magnification), the number of excysted NEJ was determined.

[8] = test system: F. hepatica metacercariae; set-up: method as in PMID 19443417; settings: final concentration of 1 mM; cited from earlier work
[9] = biological target: FhCB2 (Fasciola hepatica, UniProt A5X493); assay: Inhibition of recombinant FhCB2, fluorogenic substrate assay (Z-Val-Ile-Arg-AMC); type: biochemical; settings: for inhibition of enzymatic activity (inhibitor screen, Figure 5), in words: FhCB2, inhibitor 1000-15 nM
FhCB2, sequence (A5X493 entry or part of it): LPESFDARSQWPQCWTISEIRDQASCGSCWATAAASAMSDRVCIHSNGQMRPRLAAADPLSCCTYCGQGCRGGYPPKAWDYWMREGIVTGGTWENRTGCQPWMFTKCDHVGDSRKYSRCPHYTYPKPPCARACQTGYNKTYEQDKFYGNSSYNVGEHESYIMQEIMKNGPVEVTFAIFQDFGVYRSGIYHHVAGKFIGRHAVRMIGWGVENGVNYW
Description: as §1, §2

[10] = biological target: T1, human cathepsin B (HsCB) (Homo sapiens, UniProt P07858); assay: Inhibitor screen against human cathepsin B control; type: biochemical
T1 construct: purchased Sigma-Aldrich; host or cells: human embryonic kidney cells
Text: (§3) The Schistosoma mansoni cathepsin B1 (SmCB1) was also produced in our laboratory using P. pastoris as described above. The human cathepsin B (HsCB) and cathepsin L1 (HsCL1) were produced in human embryonic kidney cells (Sigma-Aldrich).
as §2, with “All the assays were carried out in 0.1 M C-P buffer with 1 mM DTT and 0.01% Brij® L23, at the pH corresponding to the optimum for each enzyme in a total 200 µL reaction volume. The peptidases (140 nM) were pre-incubated with the inhibitor (1000-15 nM) at room temperature, for 30 min, before starting the reaction by the addition of the substrate that was optimal for each enzyme (FhCB1, Z-Phe-Arg-AMC; FhCB2 and FhCB3, Z-Val-Ile-Arg-AMC; FhCL3, Z-Gly-Pro-Arg-AMC).” left out
The broad-range cysteine peptidase inhibitor Z-Phe-Ala-FMK was also included (Figure 5).
Figure 5 Profile of inhibition of FhCB1, FhCB2, FhCB3 and FhCL3. Commercially available inhibitors of cathepsin B (Ca074 and Ca07a-OMe), cathepsin L (L, L1, LII, LIII and LIV), cathepsin K (KI, KII and KIII), cathepsin S and the broad-spectrum papain peptidase inhibitor Z-Phe-Ala-FMK (A–L) were used to determine and compare the inhibition constant against recombinants FhCB1, FhCB2, FhCB3, FhCL3, HsCB and HsCL1. […] Error bars indicate standard deviation of three replicates.

[11] = test system: NEJ; set-up: method as in PMID 19401154; settings: concentration of 6.25 μM; cited from earlier work
[12] = biological target: T2, cathepsin L1 (HsCL1) (Homo sapiens, UniProt P07711); assay: Inhibitor screen against human cathepsin L1 control; type: biochemical
T2 construct: purchased Sigma-Aldrich; host or cells: human embryonic kidney cells
T2 sequence (P07711 114-333): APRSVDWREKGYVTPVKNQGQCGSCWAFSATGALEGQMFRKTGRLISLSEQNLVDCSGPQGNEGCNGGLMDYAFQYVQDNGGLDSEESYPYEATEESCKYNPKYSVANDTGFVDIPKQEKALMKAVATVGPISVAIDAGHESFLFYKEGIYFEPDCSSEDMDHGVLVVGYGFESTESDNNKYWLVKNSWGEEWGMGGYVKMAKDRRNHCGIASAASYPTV
Text: as §3, §2
A panel of 12 commercially available cysteine peptidase inhibitors that preferentially target mammalian cathepsin B (Ca074 and Ca074-OMe), cathepsin L (L, L1, LII, LIII and LIV) cathepsin S (S) and cathepsin K (KI, KII and KIII) were screened against the FhCBs, FhCL3 and, as controls, HsCB and HsCL1. The broad-range cysteine peptidase inhibitor Z-Phe-Ala-FMK was also included (Figure 5).
Figure 5 Profile of inhibition of FhCB1, FhCB2, FhCB3 and FhCL3. Commercially available inhibitors of cathepsin B (Ca074 and Ca07a-OMe), cathepsin L (L, L1, LII, LIII and LIV), cathepsin K (KI, KII and KIII), cathepsin S and the broad-spectrum papain peptidase inhibitor Z-Phe-Ala-FMK (A–L) were used to determine and compare the inhibition constant against recombinants FhCB1, FhCB2, FhCB3, FhCL3, HsCB and HsCL1. Activity is represented as the percentage of enzymatic activity observed by hydrolysis of a fluorogenic quenched peptide substrate following a pre-incubation with inhibitor in relation to the activity of the enzyme alone. Error bars indicate standard deviation of three replicates.

[13] = recombinant FhCB1 140 nM, 30 min pre-incubation, substrate Z-Phe-Arg-AMC at KM, optimum pH, ± SEM
[14] = inhibition constant Ki, recombinant FhCL3 140 nM, 30 min pre-incubation, substrate Z-Gly-Pro-Arg-AMC at KM, optimum pH, ± SEM

SMILES: CC(C)C[C@H](NC(=O)[C@H](Cc1ccccc1)NC(=O)OCc1ccccc1)C(=O)C=O [S]
- Ki [1, 13]: 14 ± 2.42 nM
- Ki [2]: 696 ± 94.8 nM
- Ki [3, 14]: 35 ± 2.4 nM
- reduction of NEJ viability (survival) [4]: ~ 55%
- Ki [5]: 0.185 nM
- Ki [6]: 76 nM

SMILES: C[C@H](NC(=O)[C@H](Cc1ccccc1)NC(=O)OCc1ccccc1)C(=O)CF [Z-Phe-Ala-FMK]
- Ki [1, 13]: < 15 nM and 3 nM
- Ki [2]: 246 ± 55.7 nM
- Ki [3, 14]: 15 ± 5.95 nM
- reduction of metacercariae excystment [7]: more than 50%
- effect on metacercariae excystment [8]: completely prevented

SMILES: CCCNC(=O)[C@H]1O[C@@H]1C(=O)N[C@H](C(=O)N1CCC[C@H]1C(=O)OC)[C@@H](C)CC [Ca074ME]
- inhibition of enzymatic activity (inhibitor screen, Figure 5), in words ([1]; listed as Ca074-OMe): poor inhibitors; also recorded: very poor inhibitors
- inhibition constant Ki [1, 13]: poor inhibition
- Ki [1, 13]: 5500 ± 1190 nM
- inhibition of enzymatic activity (inhibitor screen, Figure 5), in words ([9]; listed as Ca074-OMe): poor inhibitors; also recorded: very poor inhibitors
- inhibition constant Ki ([9]; recombinant FhCB2 140 nM, 30 min pre-incubation, substrate Z-Val-Ile-Arg-AMC at KM, optimum pH, ± SEM): poor inhibition
- Ki [2]: 785 ± 130 nM
- inhibition of enzymatic activity (inhibitor screen, Figure 5), in words ([2]; listed as Ca074-OMe): poor inhibitors; also recorded: very poor inhibitors
- inhibition constant Ki ([2]; recombinant FhCB3 140 nM, 30 min pre-incubation, substrate Z-Val-Ile-Arg-AMC at KM, optimum pH, ± SEM): poor inhibition
- inhibition of enzymatic activity (inhibitor screen, Figure 5), in words [3]: poor inhibitors
- Ki [3, 14]: 249 ± 35.5 nM
- inhibition constant Ki ([3]; recombinant FhCL3 140 nM, 30 min pre-incubation, substrate Z-Gly-Pro-Arg-AMC at KM, optimum pH, ± SEM): poor inhibition
- inhibition of enzymatic activity (inhibitor screen, Figure 5), in words [10]: selective for HsCB compared to HsCL1
- effect on cultured NEJ [11]: sub-lethal effect

SMILES: O=CC(Cc1ccc(O)cc1)NC(=O)C(Cc1ccccc1)NC(=O)OCc1ccccc1 (stereo not drawn) [LII] (Cbz-Phe-Tyr-aldehyde; configuration not given here)
- inhibition of enzymatic activity (inhibitor screen, Figure 5), in words [1]: most effective at reducing the enzymatic activity
- inhibition of enzymatic activity (inhibitor screen, Figure 5), in words [9]: most effective at reducing the enzymatic activity
- Ki ([9]; recombinant FhCB2 140 nM, 30 min pre-incubation, substrate Z-Val-Ile-Arg-AMC at KM, optimum pH, ± SEM, read-out: inhibition constant Ki): 1840 ± 77 nM
- inhibition of enzymatic activity (inhibitor screen, Figure 5), in words [2]: most effective at reducing the enzymatic activity
- Ki ([2]; recombinant FhCB3 140 nM, 30 min pre-incubation, substrate Z-Val-Ile-Arg-AMC at KM, optimum pH, ± SEM, read-out: inhibition constant Ki): 211 ± 34.8 nM
- inhibition of enzymatic activity (inhibitor screen, Figure 5), in words [3]: most effective at reducing the enzymatic activity
- Ki ([3]; recombinant FhCL3 140 nM, 30 min pre-incubation, substrate Z-Gly-Pro-Arg-AMC at KM, optimum pH, ± SEM, read-out: inhibition constant Ki): 8 ± 0.6 nM
- inhibition of enzymatic activity (inhibitor screen, Figure 5), in words [10]: inhibited
- inhibition of enzymatic activity (inhibitor screen, Figure 5), in words [12]: specificity for HsCL1 over HsCBs; also recorded: inhibited
